From ChEMBL document CHEMBL3430912, “GSK Tres Cantos Anti-Kinetoplastid Screening (TCAKS) Data”
pIC50: −log10 of the molar value.

How the values were obtained:
Trypanosoma cruzi [1] = test: GSK_TCAKS: pIC50 Trypanosoma cruzi viability assay using beta-GAL activity. This assay was run at single shot at 5uM compound concentration per well. The biological reagents consisted of NIH-3T3 host cells and trypomastigotes parasitic cells; both cell types were set to a 3.3 * 10^5 cells/mL dilution in assay DMEM by means of a CASY cell counter device using a 60um capillary. 6 uL of the mixture were dispensed per well (about 1 * 10^3 host-cells and 1 * 10^3 parasites) with a Multidrop Combi dispenser. […] In all wells, the percentage of DMSO never exceeded 0.5%. Plates incubated for four days at 37C, 5% CO2. The substrate used for the assay fluorescence intensity (FLINT) readout was resorufin-beta-D-galactopiranoside (Sigma-Aldrich) at 5uM per well. It was diluted in PBS supplemented with the soft detergent Igepal (Fluka).; assay type: functional, organism-based, Mus musculus; settings: Tulahuen, NIH3T3
Trypanosoma cruzi [2] = test: (§1) GSK_TCAKS: pIC50 Trypanosoma cruzi Imaging: Infected Cells. […] Cells were then washed once with PBS before infection. T. cruzi trypomastigotes, collected at days 5 to 8 after infection from LLC-MK2 parasite infected cultures, were allowed to swim out for 4h at 37C from a centrifuged pellet (2,500 rpm/10 min/room temperature). Trypomastigotes were then collected and counted in a CASY Cell Counter. Trypomastigotes, in supplemented DMEM, were added to H9c2 cultures in a multiplicity of infection of 1 and incubated for 18 h. Cells were washed once with PBS before incubation of the infected H9c2 monolayer with trypsin (Life-Technologies) to detach cells from the flask. Cells were counted in a CASY Cell Counter using a 150 um capillary and their density set at 5 * 10^4 cells per mL in supplemented assay DMEM. Infected H9c2 were dispensed into 384-well poly-lysine coated assay plates at 50uL per well using a Multidrop Combi dispenser. After seeding them, the plates were incubated at 37C, 5% CO2 for 72h. Cultures were then fixed and stained by addition of 50 uL of a solution containing 8% formaldehyde and 4 uM DRAQ5 DNA dye (BioStatus, UK) per well. […] Five images were collected per well for reliable statistical analysis. Automated image analysis was performed with a script developed on Acapella High Content Imaging and Analysis Software (PerkinElmer). Output: percentage of infected cells per well as a second infection marker.; assay type: functional, organism-based, Rattus norvegicus; settings: H9c2, 4 h
Trypanosoma cruzi [3] = test: GSK_TCAKS: pIC50 Trypanosoma cruzi Imaging: Amastigotes/Cell. […] Cells were then washed once with PBS before infection. T. cruzi trypomastigotes, collected at days 5 to 8 after infection from LLC-MK2 parasite infected cultures, were allowed to swim out for 4h at 37C from a centrifuged pellet (2,500 rpm/10 min/room temperature). Trypomastigotes were then collected and counted in a CASY Cell Counter. Trypomastigotes, in supplemented DMEM, were added to H9c2 cultures in a multiplicity of infection of 1 and incubated for 18 h. Cells were washed once with PBS before incubation of the infected H9c2 monolayer with trypsin (Life-Technologies) to detach cells from the flask. Cells were counted in a CASY Cell Counter using a 150 um capillary and their density set at 5 * 10^4 cells per mL in supplemented assay DMEM. Infected H9c2 were dispensed into 384-well poly-lysine coated assay plates at 50uL per well using a Multidrop Combi dispenser. After seeding them, the plates were incubated at 37C, 5% CO2 for 72h. Cultures were then fixed and stained by addition of 50 uL of a solution containing 8% formaldehyde and 4 uM DRAQ5 DNA dye (BioStatus, UK) per well. […] Five images were collected per well for reliable statistical analysis. Automated image analysis was performed with a script developed on Acapella High Content Imaging and Analysis Software (PerkinElmer). Output: number of amastigotes per cell as infection level measurement.; assay type: functional, organism-based, Rattus norvegicus; settings: H9c2, 4 h
Trypanosoma cruzi [4] = test: as §1, with “H2C9” for “Trypanosoma cruzi”, “H9c2 Host Cardiomyocytes.” for “Infected Cells.”, “Number” for “percentage”, “H9c2 Host Cardiomyocytes nuclei to determine drug-related cytotoxicity.” for “infected cells per well as a second infection marker.”; assay type: functional, organism-based, Rattus norvegicus; settings: H9c2, 4 h
Leishmania donovani [5] = test: GSK_TCAKS: pIC50 Leishmania donovani viability assay using fluorescence intensity. Assay plates (1536-well) were prepared by adding 30nL per well of compound. For single shot assay, the final compound concentration was 5uM. […] Briefly, eGFP LdBOB axenic amastigotes were harvested, fixed and counted in a CASY cell counter (Roche-Applied Science). A final concentration of 1.5 * 10^5 cells per well were prepared in amastigote media containing 500 U/mL penicillin/streptomycin (Invitrogen) and 6uL was dispensed to each experimental well using a Multidrop Combi dispenser (Thermo Scientific). 6uL of assay media was dispensed to control columns used as reference for 100% compound response. Following incubation for 72 h at 37C, 5% CO2, 2 uL of resazurin was added to each well at a final concentration of 0.5 mM in phosphate buffered saline (PBS) with IGEPAL (Sigma-Aldrich), 0.05% (v/v).; assay type: functional, organism-based
Leishmania donovani [6] = test: (§2) GSK_TCAKS: pIC50 Leishmania donovani Imaging: Infected Macrophages. Assay plates (384-well) were prepared by adding 250nL of compound to each well. For single shot assay, the final compound concentration was 5 uM. […] Automated image analysis was performed with a script developed on Acapella High Content Imaging and Analysis Software (PerkinElmer). Output: Percent of infected macrophage cells were reported for each well.; assay type: functional, organism-based, Homo sapiens; settings: THP-1
Leishmania donovani [7] = test: as §2, with “Amastigotes/Macrophages.” for “Infected Macrophages.”, “Average number” for “Percent”, “amastigotes per” for “infected”, “cell” for “cells”; assay type: functional, organism-based, Homo sapiens; settings: THP-1
Leishmania donovani [8] = test: as §2, with “THP-1 Host” for “Infected”, “THP-1 cell count” for “Percent of infected macrophage cells”; assay type: functional, organism-based, Homo sapiens
[9] = tested on: Trypanosoma brucei brucei; test: GSK_TCAKS: pIC50 Trypanosoma brucei viability assay using fluorescence intensity. Assay plates (1536-well) were prepared by dispensing 25nL of compound solution per well using an Echo acoustic dispenser (Labcyte).; assay type: functional, organism-based; settings: Lister 427, 2 h
[10] = tested on: Trypanosoma brucei brucei; test: GSK_TCAKS: pIC50 Trypanosoma brucei viability assay using luminiscence. Assay plates (1536-well) were prepared. T. brucei cultures were harvested and counted in a CASY cell counter. A parasite suspension was prepared at a final concentration of 5 * 10^4 cells/mL in complete HMI9 medium and 6uL was dispensed to all wells containing compounds using a Multidrop Combi dispenser. 6uL of HMI9 media with 0.4% DMSO were dispensed to control columns. Plates were incubated for 24 h at 37C, 5% CO2 then tempered for 10 min at room temperature. ATP content was quantified by adding 4 uL of CellTiter-Glo Reagent (Promega) according to the manufacturer's instructions. Luminescence was measured using a ViewLux.; assay type: functional, organism-based; settings: Lister 427, CASY
[11] = GSK_TCAKS: pIC50 HepG2 human cell line viability assay using luminiscence. […] Seeding density was checked to ensure that new mono-layers were not more than 50% confluent at the time of harvesting. Cell suspension was added to 500 mL of the same medium at a final density of 1.2 * 10^5 cells/mL. This cell suspension was dispensed (25 uL, 3000 cells per well) into 384-well clear-bottom plates using a Multidrop Combi dispenser. Prior to addition of the cell suspension, the screening compounds (250 nL) were pre-dispensed into the plates with an Echo liquid handler. Plates were incubated for 48 h at 37C, 5% CO2. After incubation, plates equilibrated at room temperature for 30 min before proceeding to develop the luminescent signal. The signal developer, CellTiter-Glo Reagent, was allowed to equilibrate at room temperature for 30 min and added to the plates (25uL per well) using a Multidrop Combi dispenser. Plates were left for 10 min at room temperature for stabilization and then read using a ViewLux.; assay type: toxicity, cell-based
[12] = target: Sterol 14-alpha demethylase (Trypanosoma cruzi (strain CL Brener), UniProt Q7Z1V1); test: GSK_TCAKS: pIC50 CYP51 from Trypanosoma cruzi.; assay type: functional
Sterol 14-alpha demethylase, sequence (Q7Z1V1 whole entry): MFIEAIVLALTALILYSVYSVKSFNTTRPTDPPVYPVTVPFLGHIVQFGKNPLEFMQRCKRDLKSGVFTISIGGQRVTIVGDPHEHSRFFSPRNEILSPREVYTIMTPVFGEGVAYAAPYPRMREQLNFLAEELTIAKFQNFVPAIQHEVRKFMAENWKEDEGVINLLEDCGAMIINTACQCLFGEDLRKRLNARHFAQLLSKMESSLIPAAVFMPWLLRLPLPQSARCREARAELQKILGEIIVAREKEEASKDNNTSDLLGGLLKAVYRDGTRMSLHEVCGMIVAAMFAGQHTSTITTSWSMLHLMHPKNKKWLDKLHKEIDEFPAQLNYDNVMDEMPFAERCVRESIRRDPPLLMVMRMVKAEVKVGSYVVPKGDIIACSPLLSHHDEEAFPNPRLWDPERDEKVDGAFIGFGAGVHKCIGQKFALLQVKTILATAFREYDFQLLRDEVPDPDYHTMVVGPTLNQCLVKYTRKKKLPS

Row | SMILES | pIC50 (Trypanosoma cruzi [1]) | pIC50 (Trypanosoma cruzi [2]) | pIC50 (Trypanosoma cruzi [3]) | pIC50 (Trypanosoma cruzi [4]) | pIC50 (Leishmania donovani [5]) | pIC50 (Leishmania donovani [6]) | pIC50 (Leishmania donovani [7]) | pIC50 (Leishmania donovani [8]) | pIC50 [9] | pIC50 [10] | IC50 at 48 h [11] [µM] | pIC50 [12]
1 | NCc1csc(Nc2cc(Oc3ccccc3)ncn2)n1 | 4.50 | 4.60 | 4.50 | < 4.30 | < 4.30 | 4.60 | 4.60 | < 4.30 | 6.20 | 6.10 | > 100 | 6.50
2 | Cc1cnc(Nc2cc(Cc3ccccc3)nc(N[C@H]3CC[C@H](O)CC3)n2)s1 | 6.90 | 6.90 | 7.30 | 7.50 | 6.10 | 7.40 | 7.50 | 7.60 | 7.60 | 7.40 | 25.1 | < 4.00
3 | COc1cccc(-c2c(C)nn(-c3nc(N)nc(-c4ccccn4)n3)c2N)c1 | 5.60 | 5.70 | 6.30 | < 4.30 | 5.30 | 5.70 | 5.80 | < 4.30 | < 4.40 | < 4.40 | > 100 | < 4.00
4 | CC(C)c1nn(-c2nc(N)nc(-c3ccccn3)n2)c(N)c1C1CCCCC1 | 5.70 | 5.90 | 5.90 | 5.50 | 5.10 | 6.00 | 6.10 | 5.30 | 5.10 | 5.10 | 20 | 5.50
5 | Cc1nn(-c2nc(N)nc(-c3ccccn3)n2)c(C)c1Cc1ccccc1 | 5.60 | 5.50 | 5.70 | 4.70 | 5.30 | 5.50 | 5.60 | < 4.30 | < 4.40 | 5.20 | > 100 | 4.20
6 | Cc1occc1C(=O)Nc1ccccc1C(=O)Nc1nccs1 | < 4.30 | < 4.30 | 4.50 | < 4.30 | < 4.30 | < 4.30 | < 4.30 | < 4.30 | 6.40 | 6.30 | > 100 | < 4.00
7 | COc1cccc(CN(C)Cc2nc(N)c3c(C)c(C)sc3n2)c1 | 5.20 | 4.80 | 4.80 | < 4.30 | 4.50 | 5.30 | 5.50 | 4.50 | 5.30 | 5.40 | 39.8 | < 4.00
8 | CC(C)Nc1nc(Cl)nc2ccccc12 | 5.40 | 5.00 | 5.40 | 5.10 | 4.70 | 5.60 | 5.90 | 4.70 | 5.30 | 4.90 | 39.8 | < 4.00
9 | Cc1cc2nc(CN(C)Cc3ncccc3C)[nH]c2cc1C | 6.30 | 6.00 | 6.30 | 4.90 | 5.30 | 6.20 | 6.30 | 5.10 | 6.20 | 6.20 | 39.8 | 4.10
10 | CC(C)(C)CC(=O)NCc1noc(COc2ccccc2)n1 | 5.55 | 5.60 | 5.60 | < 4.30 | < 4.30 | < 4.30 | < 4.30 | < 4.30 | 6.20 | 6.10 | > 100 | 4.30
11 | O=C(Cn1cnc2c(-c3ccccc3)csc2c1=O)N1CCCCC1 | 5.45 | 5.40 | 5.50 | < 4.30 | < 4.30 | < 4.30 | < 4.30 | < 4.30 | 6.10 | 6.00 | > 100 | 4.40
12 | CN(CCOc1ccc(Cl)cc1)Cc1nc(N)nc(N(C)C)n1 | 5.30 | 5.00 | 5.10 | < 4.30 | 4.80 | 5.10 | 5.30 | < 4.30 | 4.60 | 4.80 | > 100 | 4.50
13 | Cc1cc(=O)n2nc(Oc3ccc(C#N)cc3Cl)sc2n1 | 4.80 | 4.50 | 4.60 | 4.50 | 4.90 | 4.50 | 4.50 | 4.50 | 6.20 | 6.50 | 39.8 | < 4.00
14 | O=C(c1ccc(O)c(Cl)c1)N1CCN(c2cnccn2)CC1 | < 4.30 | < 4.30 | 5.00 | < 4.30 | 6.50 | 5.30 | 5.50 | < 4.30 | < 4.40 | < 4.40 | > 100 | < 4.00
15 | O=C1CN(Cc2ccco2)C2CS(=O)(=O)CC2N1c1ccc(Cl)cc1 (stereo unspecified) | < 4.30 | < 4.30 | < 4.30 | < 4.30 | < 4.30 | < 4.30 | < 4.30 | < 4.30 | 6.50 | 6.60 | > 100 | < 4.00
16 | Cc1nc(-c2ccncc2)ncc1C(C)NC(=O)c1ccc(Cl)s1 (stereo unspecified) | 4.60 | 4.50 | 4.70 | < 4.30 | < 4.30 | < 4.30 | < 4.30 | < 4.30 | 6.00 | 6.00 | > 100 | 6.10
17 | Cn1nc(C(=O)N2CCc3ccccc32)c2c1CCS(=O)(=O)C2 | 5.10 | 4.90 | 5.10 | < 4.30 | 5.40 | 5.40 | 5.80 | < 4.30 | 5.40 | 5.20 | > 100 | < 4.00
18 | CCc1nn(-c2ncc(F)c(NC(C)C)n2)c(N)c1C1CCCCC1 | 5.45 | 5.50 | 5.80 | 6.00 | 5.50 | 5.50 | 5.80 | 4.80 | 5.00 | 4.80 | 31.6 | < 4.00
